# Reference: patent US20250101448A1, “Protein, Gene and Their Vectors and Applications that Control Symbiotic Nitrogen Fixation Efficiency of Soybeans” (priority 2022, published 2025)
# Assays:
# soybean root nodules = assay: nodule nitrogenase activity after sucrose treatment of plants inoculated with USDA110; type: in vivo; details: wild-type W82, 3% (w/v) sucrose solution for three days
# Description: Design editing site identification primers based on the target sequences of sgRNA on GmNAS1 and GmNAP1, amplify the corresponding fragments and send them for sequencing. The sequencing results are analyzed and four function loss mutants of cr-nas1, cr-nap1, cr-nas1nap1-1 and cr-nas1nap1-2 are obtained. The nodule number, nodule weight and nodule nitrogenase activity on the 25th day after the mutant plants are inoculated with Rhizobia USDA110 are measured.
# By utilizing gene editing technology, we obtain the functional knockout mutant cr-nas1 of GmNAS1, the functional knockout mutant cr-nap1 of GmNAP1, and the double knockout mutants cr-nas1nap1-1 and cr-nas1nap1-2 of GmNAS1 and GmNAP1. The root nodules of these four soybean mutants are phenotypically determined 25 days after inoculation with USDA110.
# [1] = test system: soybean root nodule cells; assay: GmNFYC10a nuclear protein level and glycolysis gene expression in root nodules before and after sucrose treatment; type: in vivo; details: after sucrose treatment
# GmNAP1 protein = assay: isothermal titration calorimetry, binding of GmNAP1 to AMP/ADP/ATP/cAMP; design: species or system soybean; details: ITC, GmNAP1 expressed in Escherichia coli and purified
# Excerpt: (§1) Utilize the prokaryotic expression system of Escherichia coli to express and purify GmNAS1 and GmNAP1 proteins; and then utilize isothermal titration calorimetry to detect the binding ability of GmNAS1/GmNAP1 to AMP, ADP, ATP and cAMP.
# GmNAS1 protein = assay: isothermal titration calorimetry, binding of GmNAS1 to AMP/ADP/ATP/cAMP; design: species or system soybean; details: ITC
# Excerpt: as §1
# GmNFYC10a-GFP = GmNFYC10a-GFP fluorescence localization in sections of mature root nodules; type: cell-based, soybean; details: nodule sections treated for 2 hours, 25 days after inoculation with Rhizobia
# Excerpt: This application also uses co-immunoprecipitation coupled mass spectrometry analysis technology to search for candidate proteins that bind to GmNAP1. In the mass spectrometry results, a transcription factor GmNFYC10a is discovered. […] In order to verify this speculation, we first obtains GmNFYC10a-GFP transgenic hairy roots, and carrying out vibration sectioning of mature root nodules 25 days after inoculation with Rhizobia. […] (FIG. 14).
# [2] = test system: interaction between GmNAS1 and GmNFYC10a; assay: pull-down of GmNAS1 and GmNFYC10a interaction; type: binding, soybean
# [3] = test system: GmNAS1 protein lacking any one CBS functional domain; assay: isothermal titration calorimetry, GmNAS1 protein lacking a CBS functional domain, binding to AMP; design: species or system soybean; details: ITC
# Excerpt: as §1
smiles,measurement,setting,value
OC[C@H]1O[C@@](CO)(O[C@H]2O[C@H](CO)[C@@H](O)[C@H](O)[C@H]2O)[C@@H](O)[C@@H]1O [sucrose],nitrogenase activity of wild-type plants vs plants without sucrose,soybean root nodules,significantly higher
same,protein content of GmNFYC10a in the nucleus,[1]; nuclei of soybean root nodule cells,decreases significantly
same,expression of glycolysis-related genes,[1]; root nodules,significantly down-regulated
Nc1ncnc2c1ncn2[C@@H]1O[C@H](COP(=O)(O)OP(=O)(O)OP(=O)(O)O)[C@@H](O)[C@H]1O [ATP],binding to GmNAP1,GmNAP1 protein,does not bind
same,binding to GmNAS1,GmNAS1 protein,does not bind
CC[C@H]1/C=C/C=C/C[C@@H](C)[C@H](O)[C@@](C)(O)C(=O)[C@@H](C)[C@H](O)[C@@H](C)C(=O)[C@@H](C)[C@H](O)[C@@H](C)/C=C/C(=O)O[C@@H]2[C@H](C)[C@H](CC1)O[C@]1(CC[C@H](C)[C@H](C[C@@H](C)O)O1)[C@H]2C [oligomycin],GmNFYC10a-GFP fluorescence in the nucleus,GmNFYC10a-GFP,increased significantly
Nc1ncnc2c1ncn2[C@@H]1O[C@H](COP(=O)(O)OP(=O)(O)O)[C@@H](O)[C@H]1O [ADP],binding to GmNAP1,GmNAP1 protein,does not bind
Nc1ncnc2c1ncn2[C@@H]1O[C@H](COP(=O)(O)O)[C@@H](O)[C@H]1O [AMP],effect on interaction between GmNAS1 and GmNFYC10a,[2],significantly inhibit
same,binding to GmNAP1,GmNAP1 protein,does not bind
same,GmNFYC10a-GFP fluorescence in the nucleus,GmNFYC10a-GFP,increased significantly
same,binding to GmNAS1 protein lacking any one CBS functional domain,[3],not capable of binding
